Data reported in patent US20130129681A1, “METHODS FOR DIAGNOSING SOLID TUMORS” (NODALITY, INC., priority 2011, published 2013).
Entries after “also recorded” stand apart in the source; their conditions may differ.

Tests used:
[1] = test system: p-AKT and p-ERK in epithelial cells of pleural effusion; experiment: SCNP of pleural effusion, patient MCSF-015 (non-small cell lung cancer): p-AKT and p-ERK; format: cell-based, human
Protocol: A procedure similar to that shown for Example 5 was performed. A pleural effusion was obtained from a patient (MCSF-015) with a diagnosis of non-small cell lung cancer with a white cell count of 150 million.
The HT-1376 epithelial bladder cancer cell line served as a positive control for EGF induced signaling. The control cell line was processed in parallel with the patient sample.
(§1) SCNP contour plots identify p-AKT and p-ERK signaling in the epithelial cell compartment only. […] EGF stimulation (5 min., 37° C.) activates the PI3K and Ras/MEK pathways which are measured by p-Akt and p-ERK respectively. […] Median fluorescent values of p-AKT and p-ERK under each treatment condition.

[2] = test system: EGF signaling in epithelial cells of ascites or pleural effusion samples; experiment: Summary of SCNP analysis of ascites or pleural effusion samples; format: cell-based, human
Source text: This analysis identified epithelial cells with inducible EGF signaling in ⅘ ascites or pleural effusion samples. In each of the 4 positive cases, induced signaling was inhibited by the PI3K inhibitor, GDC-0941.

[3] = test system: p-AKT and p-ERK in epithelial cells of pleural effusion; experiment: SCNP of pleural effusion, patient MCSF-04 (non-small cell lung cancer): p-AKT and p-ERK; format: cell-based, human
Protocol: A procedure similar to that shown for Example 1 was performed. A pleural effusion was obtained from a patient (MCSF-04) with a diagnosis of non-small cell lung cancer with a white cell count of 21 million.
(§2) Purpose: (1) Evaluate ability to detect epithelial cells in the pleural effusion sample. (2) Measure DNA content to evaluate whether detected cells are possibly originating from the tumor (aneuploid). (3) measure basal level p-AKT and p-ERK signaling in epithelial cells. (4) Measure evoked signaling after EGF stimulation in the same cell populations. (5) Measure signaling inhibition when the EGF is added after incubation with a PI3K inhibitor (GDC-0941). (6) Culture cells in the presence and absence of EGF to observe possible growth promoting effects and to potentially characterize the signaling of cells that expand.
Gating Scheme: The epithelial phenotype is based on the cells being positive for EpCAM and Cytokeratin stains, while expressing low levels of CD45.
SCNP contour plots show signaling in the epithelial cell compartment only. […] EGF stimulation (5 min., 37° C.) activates the PI3K and Ras/MEK pathways which are measured by p-AKT and p-ERK respectively. Attenuation of the EGF→p-AKT induced signaling in the presence of GDC-0941.

[4] = test system: p-AKT and p-ERK in epithelial cells of ascites fluid; experiment: SCNP of ascites fluid, patient MCSF-02 (biliary cancer): p-AKT and p-ERK; format: cell-based, human
Protocol: A procedure similar to that shown for Example 5 was performed. Ascites fluid was obtained from a patient (MCSF-02) with a diagnosis of biliary cancer with a white cell count of 4.3 million. This example has the same purpose as Example 5 as applied to ascites fluid.
Gating Scheme: The epithelial phenotype is based on the cells being positive for EpCAM and cytokeratin, while expressing low levels of CD45. Positive staining for cleaved PARP (c-PARP) indicates apoptosis. DNA index: The DNA index of the epithelial cells is based on the DNA content of the cells in the epithelial gate divided by the DNA content of the lymphocytes.
The biliary specimen contained 0.17% epithelial cells that were mostly non-apoptotic. This small percentage equates to ˜10 cells/condition. From this small population EGF induced p-AKT signaling was observed. A 9-fold increase in p-AKT levels were observed after […]. EGF stimulation. Induced signaling was attenuated with a 1 hour pre-incubation with 200 nM GDC-0941 (“GDC”). […] This is in contrast to the control cell line.

[5] = test system: p-AKT and p-ERK in epithelial cells of pleural effusion; experiment: SCNP of pleural effusion, patient MCSF-06 (non-small cell lung cancer): p-Akt and p-ERK; format: cell-based, human
Protocol: A procedure similar to that shown for Example 5 was performed. A pleural effusion was obtained from a patient (MCSF-06) with a diagnosis of non-small cell lung cancer with a white cell count of 6.8 million. This example has the same Purpose as Example 5 as applied to lung cancer. The HT-1376 epithelial bladder cancer cell line served as a positive control for EGF induced signaling.
as §1, with “p-Akt” for “p-AKT”, “condition (see FIG. 5). The control cell line was processed in parallel with the patient sample.” for “condition.”

[6] = test system: p-AKT and p-ERK (PI3K and MAP Kinase pathways) in epithelial cells of bladder washes; experiment: SCNP of bladder wash samples: p-AKT and p-ERK at baseline and after EGF +/- GDC-0941; format: cell-based, human
Protocol: Bladder washes from non-cancer (NC) patients (pts) (n=8) and confirmed/suspected bladder cancer (BC) pts (n=20) were collected using standard medical practice and shipped overnight on ice for processing within 24 hours. Antibodies against CD45, Cytokeratin (CK), and EpCAM were used to differentiate epithelial cells from leukocytes, while measurements of DNA aneuploidy (DAPI stain) allowed for distinction between tumor and normal epithelial cells. Signaling activity in the PI3K and MAP Kinase pathways was assessed by measuring intracellular levels of p-AKT and p-ERK both at baseline and in response to pathway modulation. A process similar to that shown in Example 1 was used.
(§3) Upon delivery, cells were pelleted, counted, rested for 1 hr at 37° C., followed by a 5 minute stimulation with EGF or vehicle+/−GDC-0941 200 nM added 1 hr prior to EGF addition to inhibit PI3K signaling After cell fixation and permeabilization, samples were stained with fluorophore-conjugated antibodies/DAPI cocktail, and the data acquired using multi-parametric flow cytometry. The epithelial bladder carcinoma cell line HT-1376 was used as a control for the epithelial phenotype and EGF signaling. A DNA index was determined using the lymphoid population in the pt samples as a diploid G0/G1 reference.

MDS patients = conditions: cited from earlier work
pleural effusion cells = experiment: Culture of pleural effusion cells (MCSF-04) in presence and absence of EGF; format: cell-based, human
Protocol: as §2
Cells in culture: 1 million cells were plated in two wells of a 24-well plate in the presence and absence of EGF. The cells visually appeared healthy after 48 hrs in culture with some cells with elongated appearance like an epithelial cells. Some very large round cells were also observed. At day 8, both cultures had adherent and non-adherent cells. Counts were performed. The well without EGF contained 400,000 viable, non-adherent cells while the well in the presence +EGF contained 800,000. The patient specimen contained 15.87% epithelial cells that were mostly non-apoptotic. The DNA index is 1.37 indicating the epithelial cells are aneuploid.

HT-1376 cells = experiment: HT-1376 bladder cancer cells spiked into whole blood, EGF-induced pAKT and pERK; format: cell-based; conditions: HT-1376 in whole blood; 200 ng/mL EGF for 5 minutes at 37° C.
Protocol: A procedure similar to that shown for Example 1 was performed.
Two aliquots of 1 million cells from a bladder cancer cell line, HT-1376, were spiked into 4 mls of whole blood in an effort to determine a lower limit of detection for bladder cancer cells in blood. The epithelial cell line, HT-1376 (ATCC #CRL-1472), which has high (positive) levels of cytokeratin, low (positive) levels for EpCAM, and negative for CD45. One aliquot was preincubated with PI3K inhibitor GDC-0941 at 10 uM and another was modulated with 200 ng/mL EGF for 5 minutes at 37° C. Another aliquot of whole blood contained no HT-1376 cells or other reagents. BD phosflow fix/lyse reagent was used followed by methanol. EGF was used as a modulator to induce pAKT and pERK responses, 9.4 and 3.7 fold responses respectively.

HT-1376 cell line = experiment: Control cell line HT-1376 processed with the ascites sample, EGF-induced p-Erk; format: cell-based; conditions: HT-1376 control cell line
Protocol: as §3
The cell line control has what appears to be a lower basal p-ERK level, however one must be careful when comparing absolute fluorescent levels between different cell types (ie, cell line vs primary cells) due to differences in autofluoresence and degree of non-specific antibody binding. […] The DNA index is near 1.0 indicating these cells are not aneuploid.

CS(=O)(=O)N1CCN(Cc2cc3nc(-c4cccc5[nH]ncc45)nc(N4CCOCC4)c3s2)CC1 [GDC-0941]
effect on EGF-induced p-Akt signaling ([1]; MCSF-015 epithelial cells): Attenuation; also recorded: attenuated | effect on basal p-Akt signaling ([1]; MCSF-015 epithelial cells): attenuated | effect on p-ERK signaling ([1]; MCSF-015 epithelial cells): but not the p-ERK signaling | effect on EGF-induced signaling in the positive samples ([2]; each of the 4 positive ascites or pleural effusion cases): inhibited | effect on EGF-induced p-AKT signaling ([3]; MCSF-04 epithelial cells, EGF added after incubation with GDC-0941): attenuated; also recorded: Attenuation | effect on basal p-AKT signaling ([3]; MCSF-04 epithelial cells, GDC-0941 incubation): attenuated | effect on basal (unstim) p-AKT level ([4]; MCSF-02, 200 nM GDC-0941): inability of the PI3K inhibitor to decrease p-AKT beyond the basal | effect on EGF-induced p-AKT signaling ([4]; MCSF-02, 1 hour pre-incubation with 200 nM GDC-0941): attenuated | basal p-ERK, unstimulated condition versus GDC containing sample ([4]; MCSF-02 epithelial cells): higher than the GDC containing sample | effect on EGF-induced p-Akt signaling ([5]; MCSF-06 epithelial cells): Attenuation; also recorded: attenuated | effect on basal p-Akt signaling ([5]; MCSF-06 epithelial cells): attenuated | effect on p-ERK signaling ([5]; MCSF-06 epithelial cells): but not the p-ERK signaling | prevention of EGF-induced p-AKT and p-ERK signaling ([6]; BC samples, GDC-0941 200 nM added 1 hr prior to EGF): preventable

CCOC(=O)[C@@H](N)CCC(=O)N[C@@H](CSCc1ccccc1)C(=O)N[C@@H](C(=O)OCC)c1ccccc1 [TLK-199]
hematologic response in trial (MDS patients): hematologic improvement in all three hematopoietic lineages | toxicities in trial (MDS patients): limited to infusion reactions, nausea, chills and bone pain

EGF: Epidermal growth factor, growth factor used as modulator to induce p-AKT and p-ERK
EGF induction, above basal signaling, of p-Akt and p-ERK in epithelial cells ([1]; MCSF-015, EGF 5 min., 37° C.): strong | viable, non-adherent cells per well at day 8 (pleural effusion cells; 1 million cells plated, 24-well plate, presence of EGF (well without EGF 400,000)): 800,000 cells | proliferation in culture (pleural effusion cells; MCSF-04 cells, EGF induced condition): Proliferation was observed | samples in which epithelial cells with inducible EGF signaling were identified ([2]; ascites or pleural effusion samples): ⅘ | EGF-induced pAKT response (HT-1376 cells): 9.4 fold | EGF-induced pERK response (HT-1376 cells): 3.7 fold | EGF induction of p-AKT and p-ERK in epithelial cells ([3]; MCSF-04 pleural effusion, EGF 5 min., 37° C.): strong | EGF induction of p-AKT in epithelial cells ([4]; MCSF-02 ascites): strong | EGF induction of p-Erk in epithelial cells ([4]; MCSF-02 ascites): no significant increase above baseline; also recorded: no p-Erk induction above baseline was detected | increase in p-AKT levels after EGF stimulation ([4]; MCSF-02 ascites epithelial cells, 10 mins. EGF stimulation): 9 fold | EGF induction, above basal signaling, of p-Akt and p-ERK in epithelial cells ([5]; MCSF-06, EGF 5 min., 37° C.): strong | EGF induction of p-Erk in control cell line (HT-1376 cell line): observed | EGF-induced p-AKT and p-ERK signaling, increase over baseline ([6]; 3/10 BC evaluable bladder wash samples, 5 minute stimulation with EGF): 2-3 fold | EGF-induced signaling in NC specimens ([6]; non-cancer (NC) bladder wash specimens, 5 minute stimulation with EGF): no EGF-induced signaling was observed
